# Key:
# rat brain synaptosomes = experiment: 6-OHDA-induced neurotoxicity, synaptosomal viability; type: cell-based; details: for protective effect in 6-OHDA model (in words): 10 µM, synaptosomal viability and GSH level
# Experimental: Synaptosomes were prepared from brains of adult male Wistar rats. The brains were homogenized in 10 volume of cold buffer 1, containing 5 mM HEPES and 0.32 M sucrose (pH = 7.4). The brain homogenate was centrifuged twice at 1000× g for 5 min at 4 °C. The supernatant was collected and centrifuged 3 times at 10,000× g for 20 min at 4 °C. The pellet was re-suspended in ice-cold buffer 1. The synaptosomes were isolated by using Percoll reagent to prepare the gradient. Synaptosomes were re-suspended and incubated in buffer 2, containing 290 mM NaCl, 0.95 mM MgCl2 × 6H2O, 10 mM KCl, 2.4 mM CaCl2 × H2O, 2.1 mM NaH2PO4, 44 mM HEPES, and 13 mM D-glucose. Incubations were performed in a 5% CO2 + 95% O2 atmosphere. The content of synaptosomal protein was determined according to the method of Lowry et al. using bovine serum albumin as a standard.
# Synaptosomal viability was measured by (3-(4,5)-dimethylthiazol-2-yl)-2,5-diphenyl tetrazolium bromide)-test, described by Mungarro-Menchaca et al. The synaptosomes were incubated with the compounds and then treated with (3-(4,5)-dimethylthiazol-2-yl)-2,5-diphenyl tetrazolium bromide) solution (0.5 mg/mL) for 1 h at 37 °C. After incubation they were centrifuged at 15,000× g for 1 min. The formed formazan crystals were dissolved in DMSO (Dimethyl sulfoxide). The extinction was measured spectrophotometrically at λ = 580 nm.
# The metabolism and oxidation of dopamine cause reactive oxygen radicals and reactive quinones to be produced, which could lead to neurotoxicity and neurodegeneration. The synaptosomes were incubated with the compounds (10 µM) for 30 min and then 6-hydroxydopamnine (150 mmol/L) was used to induce neurotoxicity. […] After 1 h, they were centrifuged on a microcentrifuge for 1 min at 15,000 rpm. The precipitates were gently mixed with buffer B and glucose and centrifuged for a second time at 15,000 rpm for 1 min. After the second wash, buffer B and glucose were added to the precipitates.
# In the presented experiments, an in vitro assessment of the possible antioxidant and neuroprotective effects of the newly synthetized compounds was performed in a model of 6-OHDA induced toxicity in rat brain synaptosomes. 6-OHDA is a neurotoxicant that structurally resembles dopamine and can be used in different in vivo and in vitro models for neurotoxicity. This model resembles the histological, biochemical, and physiological characteristics of neurodegenerative diseases such as Parkinson’s and Alzheimer’s disease. […] However, their uptake into brain synaptosomes is similar among primates and rodents and they are suitable in vitro models for PD. The main mechanism of 6-OHDA toxicity includes induction of oxidative stress. It undergoes auto-oxidation or metabolic degradation to p-quinone and produces hydrogen peroxide, superoxide, and hydroxyl radicals. The process causes lipid peroxidation, protein oxidation, and DNA oxidation and finally results in oxidative stress and mitochondrial dysfunction. Rat brain synaptosomes were pretreated with compounds 3e, 3h, 3i, 3m, melatonin, and rasagiline (10 μM); after that, the samples were subjected to 6-OHDA (150 mmol/L, 1 h). The protective effects were evaluated by measurement of synaptosomal viability (MTT-test) and GSH levels (Figure 3).
# [1] = Superoxide scavenging, xanthine/xanthine oxidase NBT assay; type: biochemical; details: for change in sample absorbance vs. controls (in words): whole tested concentration range
# Experimental: Superoxide radicals scavenging activity (enzymatic assay): The assay comprises the preparation of 1 mL PBS samples containing the following substances: 1 mmol/l xanthine; 20 µL xanthine oxidase (100 IU/L); 0.04 mmol/L NBT; either the tested hydrazone or buffer for the controls. The samples were incubated at 37 °C and the absorbance was measured at 560 nm.
# The results from both assays have been presented as a percentage of the control sample.
# The potency of the compounds selected as the most promising from the cell model systems and hMAOB inhibitory studies was estimated against enzymatically (xanthine/XO system) and non-enzymatically (KO2/NBT) produced superoxide radicals (Figure 7). In the xanthine-xanthine oxidase system the generation of O2^−^● is a result of an enzymatic reaction. The molecular mechanism of action of the XO enzyme is associated with catalysation of the reaction of oxidation of hypoxanthine and xanthine and generation of uric acid. During the process of reoxidation of the enzyme, the molecular oxygen acts as an electron acceptor and the formation of physiologically important ROS, such as the superoxide radical (O2^−^●) and hydrogen peroxide (H2O2), has been observed. In the potassium superoxide-containing systems, superoxide radical generation is due to the direct addition of the KO2 to the water sample solution. The release of a superoxide anion was estimated via NBT reduction activity, indicating detectable superoxide anion levels. The application of these two alternative model systems will afford the possibility to perform a more accurate interpretation of the obtained results. Since in the enzyme-free model system, the release of the superoxide in the small sample volume is a very fast process, there is a risk of local effects that is avoided in the xanthine-xanthine oxidase system. The use of enzyme reaction provides a relatively slow generation of the superoxide radical and steady concentration.
compound,measurement,setting,value
"O=C(CCn1c(=S)n(CCC(=O)NN=Cc2ccccc2O)c2ccccc21)NN=Cc1ccccc1O [3e, 3,3′-(2-Thioxo-1H-benzo[d]imidazole-1,3(2H)-diyl)bis(N′-(2-hydroxybenzylidene)propanehydrazide)]",protective effect in 6-OHDA model (in words),rat brain synaptosomes,less pronounced protective effects
same,change in sample absorbance vs. controls (in words),[1],did not induce statistically significant change
"O=C(CCn1c(=S)n(CCC(=O)NN=Cc2cccc(O)c2O)c2ccccc21)NN=Cc1cccc(O)c1O [3h, 3,3′-(2-Thioxo-1H-benzo[d]imidazole-1,3(2H)-diyl)bis(N′-(2,3-dihydroxybenzylidene)propanehydrazide)]",increase of synaptosomal viability vs. 6-OHDA treatment,"rat brain synaptosomes; 10 µM pretreatment, 6-OHDA 1 h",71%
same,"% of the control ratio, NBT reduction",[1]; maximal tested concentration,64%
"O=C(CCn1c(=S)n(CCC(=O)NN=Cc2ccc(O)cc2O)c2ccccc21)NN=Cc1ccc(O)cc1O [3i, 3,3′-(2-Thioxo-1H-benzo[d]imidazole-1,3(2H)-diyl)bis(N′-(2,4-dihydroxybenzylidene)propanehydrazide)]",protective effect in 6-OHDA model (in words),rat brain synaptosomes,less pronounced protective effects
same,decrease of NBT reduction,[1]; xanthine/xanthine oxidase assay,15%
"COc1ccc(C=NNC(=O)CCn2c(=S)n(CCC(=O)NN=Cc3ccc(OC)cc3O)c3ccccc32)c(O)c1 [3m, 3,3′-(2-Thioxo-1H-benzo[d]imidazole-1,3(2H)-diyl)bis(N′-(2-hydroxy-4-methoxybenzylidene)propanehydrazide)]",protective effect in 6-OHDA model (in words),rat brain synaptosomes,less pronounced protective effects
same,change in sample absorbance vs. controls (in words),[1],did not induce statistically significant change

# — PMC9138090, “Study on the Neuroprotective, Radical-Scavenging and MAO-B Inhibiting Properties of New Benzimidazole Arylhydrazones as Potential Multi-Target Drugs for the Treatment of Parkinson’s Disease” (Antioxidants, 2022)
